Results published in BindingDB's records for patent US20250129067 (Progentos Therapeutics, 2025).

target: Platelet-derived growth factor receptor alpha (Homo sapiens, UniProt P16234); test: PDGFRα Kinase Assay
Experimental: The PDGFRα enzyme assays were conducted per the manufacturer's directions (Promega PDGFRα Kinase Enzyme System and ADP Glo Assay Cat #V8011). […] 20 ng of purified PDGFRα protein was added to the test article. […] ADP-Glo was added to halt the kinase reaction and deplete the remaining ATP. Kinase detection reagent, containing luciferase and luciferin, was used to convert the ADP signal into luminescence. Luminescence was measured using a Molecular Devices Spectramax ID5 and compared to a standard curve to determine kinase activity. IC50s were calculated using Prism 9, Graphpad software.

Platelet-derived growth factor receptor alpha, sequence (P16234 whole entry): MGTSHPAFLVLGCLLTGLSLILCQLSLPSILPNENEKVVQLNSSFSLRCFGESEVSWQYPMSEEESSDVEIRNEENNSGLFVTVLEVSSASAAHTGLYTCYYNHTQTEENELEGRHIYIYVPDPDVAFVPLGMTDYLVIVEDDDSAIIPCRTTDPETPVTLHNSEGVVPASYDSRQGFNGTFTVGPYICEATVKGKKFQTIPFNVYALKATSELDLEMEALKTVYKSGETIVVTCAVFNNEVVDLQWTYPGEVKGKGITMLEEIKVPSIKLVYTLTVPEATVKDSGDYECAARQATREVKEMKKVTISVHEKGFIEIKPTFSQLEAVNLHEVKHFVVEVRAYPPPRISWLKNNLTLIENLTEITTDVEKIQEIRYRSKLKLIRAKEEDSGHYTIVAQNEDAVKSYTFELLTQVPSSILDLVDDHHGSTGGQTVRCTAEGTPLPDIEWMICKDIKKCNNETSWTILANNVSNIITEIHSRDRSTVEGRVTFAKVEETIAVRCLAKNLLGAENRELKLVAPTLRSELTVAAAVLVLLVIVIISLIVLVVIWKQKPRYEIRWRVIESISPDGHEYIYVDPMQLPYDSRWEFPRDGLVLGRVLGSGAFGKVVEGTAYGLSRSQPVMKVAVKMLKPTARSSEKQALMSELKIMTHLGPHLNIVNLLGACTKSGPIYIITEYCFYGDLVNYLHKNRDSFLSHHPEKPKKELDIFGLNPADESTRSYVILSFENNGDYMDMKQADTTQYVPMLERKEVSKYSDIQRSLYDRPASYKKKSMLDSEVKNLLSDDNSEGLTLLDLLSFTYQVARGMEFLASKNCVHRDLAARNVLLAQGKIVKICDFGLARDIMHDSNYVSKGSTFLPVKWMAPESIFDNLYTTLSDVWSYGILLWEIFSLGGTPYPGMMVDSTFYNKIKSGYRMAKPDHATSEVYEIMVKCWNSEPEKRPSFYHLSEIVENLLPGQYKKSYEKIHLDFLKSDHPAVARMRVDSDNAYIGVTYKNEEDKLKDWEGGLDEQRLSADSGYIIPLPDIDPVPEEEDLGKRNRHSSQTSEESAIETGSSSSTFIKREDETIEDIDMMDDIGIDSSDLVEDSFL

IC50 [µM] | Structure (SMILES)
> 10 | CN(CCCN(C)c1cnn2cc(-c3cnn(C)c3)ccc12)c1ncc(Cc2ccccc2)cn1
5.94 | Cn1cc(-c2ccn3c(N4CCN(C(=O)OC(C)(C)C)CC4)cnc3n2)cn1 [US20250129067, Compound 87]
0.107 | Cn1cc(-c2ccc3c(N4CCN(c5ncc(C(O)Cc6ccccc6)cn5)CC4)cnn3c2)cn1 (stereo not drawn) [US20250129067, Compound 167]
